Assay [1] concerns guinea pigs sensitized with ovalbumin (OVA) and challenged intranasally with OVA. Description: Allergic rhinitis model in the guinea pig (OVA). The assay is classed as in vivo. As for the experimental part:
An allergic rhinitis model in the guinea pig was used. The guinea pigs are sensitized to ovalbumin (OVA) twice (on days 0 and 7) by an intraperitoneal injection of 0.5 ml saline containing 100 mg Al(OH)3 and 2 μg OVA. Three weeks after the last sensitization, animals are anaesthetized and the exposure of the nasal cavity to allergen is performed by dropping OVA solution at 20 mg/ml into bilateral nasal cavities. For the negative control the animals receive sensitization and challenge with saline. The animals are pretreated with either vehicle or drug (pentosan polysulfate or Budesonide) 30 min prior to intranasal instillation of OVA. Vehicle or drugs are administered, 25 μl-50 μl/nostril. A comparison of the pentosan polysulfate with Budesomde, as the reference compound, is included. Animals are terminated and all parameters measured eight hours after the provocation.
The nasal mucosal barrier permeability is assessed by measuring the leakage of protein-rich and non-sieved plasma into the nasal cavities. The amount of extravasated plasma is indicated as nasal lavage levels of total protein or albumin. Nasal lavage fluid is collected by gently rinsing the nasal cavities with phosphate buffered saline. The cells in this fluid are centrifuged and resuspended in phosphate buffered saline and counted using a semiautomated haematology analyzer. The cell composition of the nasal lavage is determined after a cytospin and staining with May Grynwald Giemsa.

The target in a further assay is T1, Elastase (Homo sapiens, UniProt P08246).
T1 sequence (P08246 30-267): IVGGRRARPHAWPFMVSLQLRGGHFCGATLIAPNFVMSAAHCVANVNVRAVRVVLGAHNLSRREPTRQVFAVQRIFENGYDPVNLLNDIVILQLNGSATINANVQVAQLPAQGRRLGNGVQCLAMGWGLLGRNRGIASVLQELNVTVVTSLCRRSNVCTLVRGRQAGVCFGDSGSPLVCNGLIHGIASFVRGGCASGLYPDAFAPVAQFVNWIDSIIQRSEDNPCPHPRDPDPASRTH
Put plainly: Elastase activity on collagen substrate. The assay is classed as biochemical. The following applies: collagen coated wells, 37° C., 30 minutes. Here is the method: Elastase activity was also measured using a physiological substrate, collagen. For these experiments collagen was coated onto the wells of a microplate. Tris buffer (50 μl) was added together with 25 μl of either inhibitor (PPS or other sulfated polysaccharides) or buffer. The plate was incubated at 37° C. for 30 minutes, before staining the wells for protein. After drying the wells at room temperature the remaining colour was dissolved by adding 200 μl of lysis solution (10% w/v SDS in DMSO) and the OD measured at […]. Control experiments include collagen without enzyme digestion as 100% values and with enzyme digestion but without inhibitor as 0% values.

For assay [2], the target named is T2, recombinant human IL-4 (rhIL-4) (Homo sapiens, UniProt P05112).
T2 construct: made in house; host or cells: baculovirus expression system
T2 sequence (P05112 25-153): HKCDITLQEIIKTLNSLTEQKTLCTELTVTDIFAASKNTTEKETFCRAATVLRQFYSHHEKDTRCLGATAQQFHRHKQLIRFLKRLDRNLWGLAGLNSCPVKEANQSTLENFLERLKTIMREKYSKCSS
Put plainly: BIAcore inhibition of IL-4 binding to immobilized heparin. To be noted: BIAcore chip, titration, FIG. 3A. From the text:
(§1) The optical phenomenon of surface plasmon resonance is used to monitor physical interactions between molecules. Passing a solution of a potential protein ligand (e.g. IL-4, IL-5 or eotaxin) over a sensor surface to which a target (e.g. heparin) is coupled monitors the real-time binding of protein ligands to the immobilized target. Detection is achieved by measuring refractive index changes very close to the sensor surface. When the refractive index is altered, the angle at which plasmon resonance occurs changes and this change directly correlates with the amount of protein interacting with the surface. A BIAcore 2000 is conveniently used. […]
(§2) Biotinylated heparin is immobilized on the biosensor chip. […] Solutions containing potential protein ligands of interest are injected over the sensor chip surface, and the binding is measured in real time (Fernig, In: Proteoglycan protocols, Ed. R. V. Iozzo, Humana Press, Totowa, N.J., USA, 2001). Baculovirus expressed recombinant human IL-4 (rhIL-4) and baculovirus expressed recombinant human IL-5 (rhIL-5) readily bind to heparin immobilized by this method (see PCT/AU2005/000551). […] Similarly, recombinant human eotaxin (CCL11) expressed in E. coli binds readily to immobilized heparin and binding is specific as there is little eotaxin binding to sensor chips lacking heparin. […]
A general note: Surface plasmon resonance follows binding to a sensor surface in real time, without labels.

The target in assay [3] is T3, recombinant human IL-5 (rhIL-5) (Homo sapiens, UniProt P05113).
T3 construct: made in house; host or cells: baculovirus expression system
T3 sequence (P05113 20-134): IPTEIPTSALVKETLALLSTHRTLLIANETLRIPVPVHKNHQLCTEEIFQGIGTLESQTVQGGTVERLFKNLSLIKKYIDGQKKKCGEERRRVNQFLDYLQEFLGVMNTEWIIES
Description: BIAcore inhibition of IL-5 binding to immobilized heparin. To be noted: BIAcore chip, titration, FIG. 3B.
Text: as §1, §2

Experimental findings from patent publication US20180078576A1, “SULPHATED XYLANS FOR TREATMENT OR PROPHYLAXIS OF RESPIRATORY DISEASES” (Paradigm Biopharmaceuticals Limited, priority 2007, published 2018) are described below.

In the case of Pentosan polysulfate [PPS], in assay [1] (8 hours after intranasal OVA challenge, FIG. 12), the “Leukocyte infiltration into nasal lavage fluid (total white cell numbers)” value is on record as “inhibited leukocyte infiltration at all the concentrations tested”. In assay [1] (8 hours after intranasal OVA challenge, drug intranasal 30 min before, FIG. 11), the “Protein content of nasal lavage fluid (plasma exudation)” value is recorded as “significantly reduced”. Besides, in assay [1] (drugs at 5 mg/kg, FIG. 13), the “Cellular infiltrate in nasal lavage fluid” value is “markedly reduced”. Moreover, on Elastase, the “Inhibition of elastase activity on collagen (in words)” value is “effective elastase inhibitor”. The IC50 in assay [2] fell in the range of 25 to 80 nM; in assay [3], 4 to 10 nM.

One may read the IC50 as the concentration that gives 50% inhibition.
